Experimental data reported in ChEMBL document CHEMBL5226319, “Small molecule approaches to treat autoimmune and inflammatory diseases (Part III): Targeting cytokines and cytokine receptor complexes” (Bioorg Med Chem Lett, 2021).
Blank lines part the entries; values can stand above or below the molecule they belong to.

Tests used:
Homo sapiens = species on record: Homo sapiens; assay: (§1) Binding affinity to gp130 (unknown origin) assessed as fold increase
Interleukin-33 = target: T1, Interleukin-33 (Homo sapiens, UniProt O95760); assay: Inhibition of human IL-33 incubated for 1 hrs by AlphaLISA assay
T1 sequence (O95760 whole entry): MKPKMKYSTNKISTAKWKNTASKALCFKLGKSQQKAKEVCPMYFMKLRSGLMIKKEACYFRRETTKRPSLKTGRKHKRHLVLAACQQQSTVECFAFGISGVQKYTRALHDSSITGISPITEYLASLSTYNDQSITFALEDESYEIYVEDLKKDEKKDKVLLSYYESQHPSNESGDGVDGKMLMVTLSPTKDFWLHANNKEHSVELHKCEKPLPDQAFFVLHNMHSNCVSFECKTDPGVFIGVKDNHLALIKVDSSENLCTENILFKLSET

Interleukin-4 [1] = target: T2, Interleukin-4 (Homo sapiens, UniProt P05112); assay: Inhibition of IL-4 (unknown origin) assessed as dissociation constant by SPR analysis
T2 sequence (P05112 whole entry): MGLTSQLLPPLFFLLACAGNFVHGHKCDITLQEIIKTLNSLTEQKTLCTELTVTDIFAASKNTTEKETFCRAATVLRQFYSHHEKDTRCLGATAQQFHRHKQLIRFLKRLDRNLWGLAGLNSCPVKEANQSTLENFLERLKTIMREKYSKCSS

Interleukin-4 [2] = target: T2, Interleukin-4; assay: Inhibition of IL-4 (unknown origin) in human THP-1 cells assessed as inhibition of STAT6 phosphorylation by HEK-Blue assay; assay type: cell-based
Interleukin-18 = target: T3, Interleukin-18 (Homo sapiens, UniProt Q14116); assay: Inhibition of human IL-18 expressed in Escherichia coli BL21(DE3) cells incubated for 18 hrs
T3 sequence (Q14116 whole entry): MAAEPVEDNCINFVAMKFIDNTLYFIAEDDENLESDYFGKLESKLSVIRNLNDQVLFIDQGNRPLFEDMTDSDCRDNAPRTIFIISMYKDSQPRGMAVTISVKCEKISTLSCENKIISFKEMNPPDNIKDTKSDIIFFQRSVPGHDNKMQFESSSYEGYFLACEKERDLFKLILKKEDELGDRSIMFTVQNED

[3] = as §1; parameters: species or system Homo sapiens
[4] = Inhibition of IL-6/gp130 (unknown origin) by SPR analysis; parameters: species or system Homo sapiens
[5] = Inhibition of OSMR/gp130 (unknown origin) by SPR analysis; parameters: species or system Homo sapiens
[6] = target: T4, Interleukin-1 receptor type 1 (Homo sapiens, UniProt P14778); assay: Inhibition of human IL1-R1 assessed as dissociation constant incubated for 5 mins by SPR analysis
T4 sequence (P14778 whole entry): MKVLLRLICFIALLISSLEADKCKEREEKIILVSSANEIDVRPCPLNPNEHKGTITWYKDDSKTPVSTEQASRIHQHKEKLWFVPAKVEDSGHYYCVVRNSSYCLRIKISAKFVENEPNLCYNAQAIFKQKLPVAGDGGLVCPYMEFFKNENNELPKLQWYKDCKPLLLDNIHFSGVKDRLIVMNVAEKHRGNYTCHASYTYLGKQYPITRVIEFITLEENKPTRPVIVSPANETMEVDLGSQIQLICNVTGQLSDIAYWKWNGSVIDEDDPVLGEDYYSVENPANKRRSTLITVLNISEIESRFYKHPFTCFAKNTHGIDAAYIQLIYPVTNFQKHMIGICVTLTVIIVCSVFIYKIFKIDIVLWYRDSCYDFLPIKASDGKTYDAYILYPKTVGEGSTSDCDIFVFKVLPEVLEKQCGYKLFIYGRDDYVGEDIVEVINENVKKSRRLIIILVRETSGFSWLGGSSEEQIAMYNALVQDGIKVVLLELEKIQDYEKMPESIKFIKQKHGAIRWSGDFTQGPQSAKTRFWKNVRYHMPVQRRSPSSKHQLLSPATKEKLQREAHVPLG

[7] = Binding affinity to gp130 (unknown origin) assessed as dissociation constant by SPR analysis; parameters: species or system Homo sapiens
[8] = Inhibition of human CXCL1 protein secretion in IL-36 gamma-stimulated HaCaT cells; assay type: cell-based
[9] = target: T5, Interleukin-2 receptor subunit alpha (Homo sapiens, UniProt P01589); assay: Inhibition of IL-2R alpha (unknown origin)
T5 sequence (P01589 whole entry): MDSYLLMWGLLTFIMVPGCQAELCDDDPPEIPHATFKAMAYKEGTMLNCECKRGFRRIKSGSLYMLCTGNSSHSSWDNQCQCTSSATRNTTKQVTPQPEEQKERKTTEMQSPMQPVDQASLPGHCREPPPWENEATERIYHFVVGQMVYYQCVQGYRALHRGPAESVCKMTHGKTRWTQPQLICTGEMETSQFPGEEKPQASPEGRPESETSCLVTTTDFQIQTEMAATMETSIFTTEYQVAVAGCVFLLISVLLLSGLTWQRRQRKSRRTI

fold change (FC) (Homo sapiens): 5
Structure (SMILES): CCCCc1ccc(OC)c(CN2c3ccccc3[C@]3(O)C[C@@H](COC(=O)c4ccccc4)O[C@H]23)c1OC

IC50 (Interleukin-33): 43 µM
Structure (SMILES): COc1ccc([C@H]2CCCN2Cc2ccc(-c3ccccc3[N+](=O)[O-])o2)cc1

IC50 (Interleukin-33): 42 µM
Structure (SMILES): COc1ccc([C@@H]2CCCN2Cc2ccc(-c3ccccc3[N+](=O)[O-])o2)cc1

Kd (Interleukin-4 [1]): 1.8 µM | EC50 (Interleukin-4 [2]): 3.1 µM
Structure (SMILES): N#Cc1c(-c2ccc(O)c(O)c2)cc(-c2ccc(F)cc2)nc1N

EC50 (Interleukin-18): 0.25 µM
Structure (SMILES): N#Cc1ccc(NC(=O)Nc2ccc(Oc3ccc(NC(=O)Nc4ccc(C#N)cc4)cc3)cc2)cc1

Kd [3]: 29 µM | fold change (FC) (Homo sapiens): 5
Structure (SMILES): CCCCc1ccc(O)c(Cn2cc(CC(O)COC(=O)c3ccccc3)c3ccccc32)c1O (stereo unspecified)

Kd [4]: 2.9 µM | Kd [5]: 5.7 µM
Structure (SMILES): Brc1ccc(Nc2nc(-c3ccccc3)cs2)cc1

Kd [3]: 36.9 µM | fold change (FC) (Homo sapiens): 5
Structure (SMILES): CCCCc1ccc(O)c(CN2c3ccccc3[C@]3(O)C[C@@H](COC(=O)c4ccccc4)O[C@H]23)c1O

Kd [6]: 316 µM
Structure (SMILES): NCCc1c(-c2ccccc2)n(-c2ccccc2)c2ccccc12

Kd [7]: 288 µM
Structure (SMILES): CCCCC1=C(C)C(=O)[C@@](C)(CN2c3ccccc3[C@]3(O)CCO[C@H]23)C1=O

Structure (SMILES): COC(c1ccccc1)(c1ccccc1)[C@H](Oc1nc(C)cc(-c2ccc(C)c(N)c2)n1)C(=O)O
IC50 [8]: 0.031 µM

IC50 [9]: 3 µM
Structure (SMILES): COC(=O)[C@H](Cc1ccc(C#Cc2ccccc2)cc1)NC(=O)C[C@H]1CCCN(C(=N)N)C1
